{
  "source": "patent US12458052B2",
  "about": "“Human milk oligosaccharides for use in enhancing executive function” (Glycom A/S, priority 2019, dated 2025)",
  "system": "genes related to myelination; myelination and myelin sheath pathway",
  "experiment": "gene expression and KEGG pathway analysis of brain samples, cross-fostering to St6Gal1 KO dams",
  "format": "in vivo, mice",
  "details": "presence in maternal milk, especially during early life",
  "from_the_text": "Adult wild-type (WT) B6.129 and heterozygous (HZ) B6.129-St6gal1^tm2Jxm breeding pairs (four males and four females and three males and four females, respectively) were purchased from a commercial breeder (The Jackson Laboratory). Upon arrival, same-sex mice were housed in same-sex groups of 2-3 in type-1 polycarbonate cages (33.0×13.0×14.0 cm) equipped with sawdust bedding, an enrichment bag (Mucedola, Settimo Milanese, Italy), metal top and ad libitum water and food pellets (Mucedola, Settimo Milanese, Italy). Mice were maintained on a reversed 12-h-light-dark cycle (light on at 7:00 PM) in an air-conditioned room (temperature 21±1° C. and relative humidity 60±10%). Two weeks after arrival, breeding triads (one male, two females) were formed. After two weeks of mating, male mice were removed and females were housed individually in standard type-1 cages. Females were checked daily for delivery and the day in which they gave birth was designated as postnatal day (PND) 0. […]\nQuantification is performed using Quant It Ribogreen assay (Life Technologies) QC assessment is performed using Standard sensitivity RNA kit on Fragment Analyzer 96 (Agilent). […]\nLibrary generation starts with oligodT priming containing the Illumina-specific Read 2 linker sequence. […] The random primer contains the Illumina-specific Read 1 linker sequence. […]",
  "data": [
    {"compound": "CC(=O)N[C@H]1[C@H]([C@H](O)[C@H](O)CO)O[C@@](OC[C@H]2O[C@@H](O[C@H]3[C@H](O)[C@@H](O)[C@H](O)O[C@@H]3CO)[C@H](O)[C@@H](O)[C@H]2O)(C(=O)O)C[C@@H]1O", "note": "[6′-SL, 6′-sialyllactose]", "values": [
      {"measurement": "optimal myelination of the prefrontal cortex", "value": "necessary"}
    ]}
  ]
}
